The results in this text go back to patent US11072592B2, “Small molecules that enable cartilage rejuvenation” (The Regents of the University of California, priority 2015, dated 2021).

The subject of assay [1] is human adult articular chondrocytes. Put plainly: Cellular metabolism (Seahorse ECAR and OCR), human adult articular chondrocytes. The assay is classed as cell-based. As for the experimental part:
The mitochondrial assay cellular oxygen consumption and mitochondrial function was carried out to measure basal respiration using XF24 instrument (Seahorse Biosciences) according to manufacturer instructions. Tested cells (100,000 cells per well) we plated into 24-well test plates 48 hours prior to experimentation. Oxygen consumption rates and extracellular acidification rates were measured every 10 minutes for up to 60 minutes (Rate 1-6).

The subject of assay [2] is pig articular cartilage biopsy punches with defects. Put plainly: Repair of defects in adult pig articular cartilage biopsy punches in vitro. The assay is classed as cell-based. The note with it: Matrigel with microspheres, 5 weeks of culture. As for the experimental part: FIGS. 31A-31D. […] (FIG. 31A) Experiments were conducted to test the tissue reparative function of compounds disclosed herein. FIG. 31A depicts histograms of amounts of glycosaminoglycans (GAGs) and collagen 2 observed under control conditions and after administration of RCGD 423. (FIG. 31B) The duration of the effects elicited by RCGD 423 was determined by applying the drug for 24 hours and then washing it out. Protein levels of pSTAT3 and MYC were determined at the indicated time points after wash out; histone H3 was used as a loading control. (FIG. 31C) Protein levels of MYC and pSTAT3 in adult pig articular chondrocytes were used to determine the time frame in which release of RCGD 423 from PLGA microspheres reaches efficacious levels. Supernatant from drug-loaded PLGA microspheres was harvested at the indicated intervals and applied to pig chondrocytes. Histone H3 was used as a loading control. (FIG. 31D) Repair in a tissue context was assessed by removing small explants from a biopsy punch of adult pig articular cartilage. Matrigel with or without RCGD 423-loaded microspheres was applied to the defects. Safranin O staining was performed on sections of explants following 5 weeks of culture; border of defect and intact tissue is shown.
We also tested whether RCGD 423 could initiate healing of small defects generated on the surface of intact articular cartilage. […]

The structures appear in SMILES notation.

With `Brc1ccc(Nc2nc(-c3ccccc3)cs2)cc1` [RCGD 423, N-(4-Bromophenyl)-4-phenyl-1,3-thiazol-2-amine], in assay [1], the cellular respiration result was “increased” and the levels of glycolysis result is recorded as “unchanged”. In addition, the “repair / remodeling of cartilage defects” value in assay [2] is reported as “promotes cartilage repair”.
